Structures are written as SMILES.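 Briefly, cells in 96-well plates were exposed to five compound concentrations for 48 h, and endpoints were estimated by linear interpolation. At the TGI there is no net growth.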

Test systems include A549 NSCLC; CCRF-CEM leukemia; COLO 205 colon; EKVX NSCLC; HCT-15 colon; MOLT-4 leukemia; NCI-H226 lung; NCI-H23 lung; OVCAR-3 ovarian; SF-539 CNS; UO-31 renal.
Holding throughout (assay): growth of human tumour cells (NCI), 48 h

Regarding `CCOC(=O)/C=C(/C(=O)OCC)n1cc(C)c(=O)n(Cc2cnnn2COCCOC(C)=O)c1=O`, the TGI with A549 NSCLC is > 84.2 µM; in the assay with CCRF-CEM leukemia it was 5.8 µM; with COLO 205 colon, 11.8 µM; with EKVX NSCLC it was 29.3 µM; in the assay with HCT-15 colon it was > 49.1 µM; in the assay with MOLT-4 leukemia it was 18.8 µM. For the same compound, the TGI is 28.7 µM in the assay with NCI-H226 lung; 31.5 µM with NCI-H23 lung; 32.3 µM with OVCAR-3 ovarian; 19.4 µM in the assay with SF-539 CNS; 30.4 µM in the assay with UO-31 renal.

For the compound `O=P(O)(O)c1ccc(-c2ccc(I)cc2)cc1`, the TGI in the assay with A549 NSCLC, in the assay on CCRF-CEM leukemia, in the assay on COLO 205 colon, with EKVX NSCLC, in the assay on HCT-15 colon and in the assay with MOLT-4 leukemia was > 100 µM each time. Moreover, the TGI in the assay on NCI-H226 lung, in the assay with NCI-H23 lung, with SF-539 CNS and in the assay on UO-31 renal was > 100 µM throughout.

For `Nc1nc(Cl)cc(OCC2(CO)CCCC2)n1`, the TGI with A549 NSCLC, in the assay on CCRF-CEM leukemia, in the assay with EKVX NSCLC, with HCT-15 colon, in the assay with MOLT-4 leukemia and in the assay with NCI-H226 lung was > 100 µM throughout. The TGI with NCI-H23 lung, in the assay with OVCAR-3 ovarian and with SF-539 CNS was > 100 µM each time.

On to `Clc1cc(-c2ccccc2)nc(Nc2nc3ccccc3[nH]2)n1`, for which the TGI was > 100 µM in the assay with A549 NSCLC; 27.6 µM in the assay on CCRF-CEM leukemia; 51 µM in the assay with COLO 205 colon; 49.5 µM in the assay on EKVX NSCLC; 22 µM in the assay with HCT-15 colon; > 100 µM with MOLT-4 leukemia. The TGI with NCI-H226 lung was > 100 µM; in the assay with NCI-H23 lung, 56 µM; in the assay with SF-539 CNS it was > 100 µM; in the assay on UO-31 renal, > 100 µM.

Turning to `O=C1c2cc(I)ccc2N2CCN=C2N1Cc1ccccc1`, the TGI in the assay with A549 NSCLC, with CCRF-CEM leukemia, in the assay with COLO 205 colon, in the assay on EKVX NSCLC, in the assay on HCT-15 colon and with MOLT-4 leukemia was > 100 µM each time. Besides, the TGI with NCI-H226 lung, with NCI-H23 lung, in the assay with OVCAR-3 ovarian, with SF-539 CNS and in the assay with UO-31 renal was > 100 µM throughout.

Take `COc1ccc2c(c1)CC[C@@H]1C2CC[C@]2(C)C(=O)N(CCN(C)C)C(=O)CC12` (some centres not stated): the TGI in the assay with A549 NSCLC, in the assay on CCRF-CEM leukemia, in the assay on COLO 205 colon, in the assay on EKVX NSCLC, in the assay with MOLT-4 leukemia and in the assay on NCI-H226 lung was > 100 µM throughout. The TGI in the assay on NCI-H23 lung, in the assay with OVCAR-3 ovarian, in the assay with SF-539 CNS and in the assay on UO-31 renal was > 100 µM in each case.

In the case of `c1coc(-c2nccc3c2[nH]c2ccccc23)c1`, the TGI in the assay on A549 NSCLC was > 100 µM; in the assay with CCRF-CEM leukemia, > 100 µM; with COLO 205 colon, 33.5 µM; in the assay with EKVX NSCLC, > 100 µM; with HCT-15 colon, > 100 µM; with MOLT-4 leukemia, > 100 µM. Moreover, the TGI in the assay on NCI-H226 lung was 95.8 µM; in the assay on NCI-H23 lung, > 100 µM; in the assay on OVCAR-3 ovarian, > 100 µM; in the assay on SF-539 CNS it was > 100 µM.

For the compound `N#Cc1c(N)oc(-c2ccc([N+](=O)[O-])cc2)c1C#N`, the TGI in the assay on A549 NSCLC was > 100 µM; in the assay on CCRF-CEM leukemia, > 100 µM; with COLO 205 colon, > 100 µM; with EKVX NSCLC it was 59.6 µM; in the assay on HCT-15 colon, 53.1 µM; in the assay on NCI-H226 lung, 46.5 µM. The TGI stood at 57.2 µM in the assay on NCI-H23 lung, 48.3 µM in the assay on SF-539 CNS and 42.4 µM with UO-31 renal.

Consider `CCOC(=O)/C=C/C(=O)O/C=C/[N+](=O)[O-]`, for which the TGI in the assay on CCRF-CEM leukemia, in the assay with COLO 205 colon, with EKVX NSCLC, in the assay on HCT-15 colon, with MOLT-4 leukemia and with NCI-H226 lung was > 100 µM throughout. The TGI with NCI-H23 lung, in the assay with OVCAR-3 ovarian, in the assay with SF-539 CNS and with UO-31 renal was > 100 µM throughout.

For the compound `CC(C)(C)NC1=NC(C(F)(F)F)(C(F)(F)F)NC(=O)N1`, the TGI in the assay on A549 NSCLC, in the assay on CCRF-CEM leukemia, in the assay on EKVX NSCLC, in the assay with HCT-15 colon, in the assay with MOLT-4 leukemia and in the assay on NCI-H226 lung was > 100 µM each time. Besides, the TGI in the assay with NCI-H23 lung, with OVCAR-3 ovarian, in the assay on SF-539 CNS and in the assay on UO-31 renal was > 100 µM in each case.

As for `O=C(CN1CCCC1=O)CS(=O)(=O)c1ccccc1`, the TGI in the assay with A549 NSCLC, with CCRF-CEM leukemia, in the assay on COLO 205 colon, in the assay on EKVX NSCLC, with MOLT-4 leukemia and with NCI-H226 lung was > 100 µM in each case. Further, the TGI with NCI-H23 lung, with OVCAR-3 ovarian, in the assay with SF-539 CNS and with UO-31 renal was > 100 µM in each case.

`Cc1cc2nc3c(C#N)c4c(c(Nc5ccc(F)cc5)n3c2cc1C)CCC4`: the TGI with A549 NSCLC, in the assay with CCRF-CEM leukemia, in the assay on COLO 205 colon, in the assay with EKVX NSCLC, in the assay on HCT-15 colon and in the assay on MOLT-4 leukemia was > 100 µM each time. The TGI in the assay on NCI-H226 lung, in the assay on NCI-H23 lung, in the assay with OVCAR-3 ovarian and in the assay with SF-539 CNS was > 100 µM each time.

For the compound `CCn1c2nc(=O)n(CCCCCCCCSC(c3ccccc3)(c3ccccc3)c3ccccc3)c(=O)c-2nc2ccccc21`, the TGI is > 100 µM in the assay with CCRF-CEM leukemia; > 100 µM with EKVX NSCLC; > 100 µM in the assay on HCT-15 colon; 24.6 µM with MOLT-4 leukemia; > 100 µM in the assay with NCI-H226 lung; > 100 µM in the assay with NCI-H23 lung. Also, the TGI in the assay with OVCAR-3 ovarian, with SF-539 CNS and with UO-31 renal was > 100 µM each time.

As for `Cn1c(-c2ccc(-c3cc(-c4cccs4)c(-c4cccs4)n3C)cc2)cc(-c2cccs2)c1-c1cccs1`, the TGI with A549 NSCLC, with CCRF-CEM leukemia, with COLO 205 colon, in the assay on EKVX NSCLC, with HCT-15 colon and in the assay with MOLT-4 leukemia was > 100 µM throughout. Also, the TGI in the assay with NCI-H226 lung, in the assay with SF-539 CNS and in the assay on UO-31 renal was > 100 µM each time.

As for `COc1cc(C2c3cc4c(cc3OC(NNC(N)=O)C2C)OCO4)cc(OC)c1OC` (configuration not stated), the TGI in the assay on A549 NSCLC is > 100 µM; with CCRF-CEM leukemia, 0.507 µM; in the assay on COLO 205 colon it was 0.613 µM; with EKVX NSCLC, 99.7 µM; in the assay on MOLT-4 leukemia, > 100 µM; in the assay on NCI-H226 lung, 3.7 µM. In addition, the TGI is > 100 µM with NCI-H23 lung, 0.165 µM with SF-539 CNS and > 72.6 µM with UO-31 renal.

As for `Nc1nc(NCCOCP(=O)(O)O)c([N+](=O)[O-])c(=O)[nH]1`, the TGI in the assay on A549 NSCLC, in the assay with CCRF-CEM leukemia, in the assay on COLO 205 colon, in the assay with EKVX NSCLC, in the assay with MOLT-4 leukemia and in the assay on NCI-H226 lung was > 100 µM in each case. Besides, the TGI in the assay with NCI-H23 lung, with OVCAR-3 ovarian, in the assay with SF-539 CNS and in the assay on UO-31 renal was > 100 µM in each case.

Turning to `COc1cc(C2c3cc4c(cc3OC(NNc3ccccc3)C2C)OCO4)cc(OC)c1OC` (configuration not stated), the TGI in the assay on A549 NSCLC is > 42.3 µM; with CCRF-CEM leukemia, > 27.3 µM; in the assay with COLO 205 colon, 10.3 µM; with EKVX NSCLC, 21.1 µM; in the assay on MOLT-4 leukemia it was > 47.3 µM; with NCI-H226 lung it was 6.92 µM. Also, the TGI with NCI-H23 lung is > 100 µM; in the assay with OVCAR-3 ovarian, 19.2 µM; in the assay on SF-539 CNS, 1.67 µM; in the assay on UO-31 renal it was 6.79 µM.

As to `CCC12CCCN(Cc3ccccc3)C1c1c(n(C)c3ccccc13)C(CO)C2` (configuration not stated), the TGI was > 257 µM in the assay on A549 NSCLC; > 257 µM in the assay with CCRF-CEM leukemia; 75.2 µM in the assay with COLO 205 colon; 245 µM in the assay with EKVX NSCLC; 78.1 µM in the assay with HCT-15 colon; 149 µM with MOLT-4 leukemia. Also, the TGI was found to be 104 µM in the assay with NCI-H226 lung, 158 µM in the assay with NCI-H23 lung, 90.7 µM with OVCAR-3 ovarian and 73.9 µM with SF-539 CNS.

As for `O=c1[nH]c2ccccc2c(O)c1Cc1ccccc1`, the TGI in the assay with A549 NSCLC, in the assay on CCRF-CEM leukemia, in the assay with COLO 205 colon, in the assay on EKVX NSCLC, with HCT-15 colon and with MOLT-4 leukemia was > 100 µM in each case. Also, the TGI with NCI-H226 lung, with NCI-H23 lung, with OVCAR-3 ovarian and with SF-539 CNS was > 100 µM in each case.

Regarding `O=C(Cc1nc2ccc(C(=O)c3ccccc3)cc2[nH]c1=O)C(=O)Nc1nc2ccccc2[nH]1`, the TGI in the assay with A549 NSCLC, in the assay with CCRF-CEM leukemia, in the assay with COLO 205 colon, in the assay with EKVX NSCLC, with HCT-15 colon and in the assay on MOLT-4 leukemia was > 100 µM each time. The TGI in the assay on NCI-H23 lung, with OVCAR-3 ovarian, with SF-539 CNS and in the assay with UO-31 renal was > 100 µM throughout.

The values above are taken from PubChem BioAssay (NCI).
